Data reported in patent US5821084A, “Osteoblast-testicular protein tyrosine phosphatase” (The Regents of the University of Michigan, priority 1994, dated 1998).

Key:
UMR106 cells = conditions: cited from earlier work
[1] = tested on: other two novel PTPase clones; assay: Northern blot of other novel PTPase clones in PTH-treated UMR106 cells; assay type: cell-based, rat; conditions: PTH treatment
Procedure: RNA was analyzed by Northern blot hybridization to determine the tissue specificity of the OST-PTP clone. Poly A^+ RNA was extracted from an array of adult rat tissues: uterus, ovary, testis, kidney, heart, liver, lung, spleen, brain, skeletal muscle, smooth muscle, pancreas and retina. Poly A^+ RNA derived from UMR106 was used as a standard to control for expression in bone. The RNA preparations were quantitated by absorbance at 260 nm and, depending on the message abundance, either total cellular RNA or poly A+ RNA was electrophoretically separated in a 6.6% formaldehyde-1%agarose gel. RNA fractionated in such gels was transferred to Magnagraph nylon membrane (MSI) in 20× SSC by capillary action method. Two different types of probe; riboprobe (RNA) or random primed cDNA probe, were used depending on the experiment. The riboprobe used for hybridization corresponded to the extracellular domain of OST-PTP, and was labeled by in vitro transcription using ^32 P-a (3000 Ci/mM) as described by manufacturers (Promega). […] All quantifications were normalized against the amount of cyclophilin message which was considered to be standard for any given conditions. […]

OST-PTP mRNA = assay type: cell-based, rat
Text: Poly A^+ RNA was extracted from an array of adult rat tissues: uterus, ovary, testis, kidney, heart, liver, lung, spleen, brain, skeletal muscle, smooth muscle, pancreas and retina. Poly A^+ RNA derived from UMR106 was used as a standard to control for expression in bone. […] RNA fractionated in such gels was transferred to Magnagraph nylon membrane (MSI) in 20× SSC by capillary action method. Two different types of probe; riboprobe (RNA) or random primed cDNA probe, were used depending on the experiment. […] All DNA probes were labeled with ^32 P-a (3000 Ci/mM) by the Random Primers DNA labeling kit using manufacturer's recommended conditions (GibcoBRL Life Technologies). […] For hybridizations, 10^6 cpms/ml probe was added. Following hybridization, the blots were washed twice at room temperature in 1× SSC+0.1% SDS (30 minutes per wash), and then washed twice in 0.1× SSC+0.1% SDS (30 minutes per wash) once at room temperature and once at 68° C. The prehybridization/hybridization conditions for the DNA probes were the same as described above except the temperature was lowered to 43° C. […] The washes were done as described above. The results were visualized either by autoradiography or by scanning with a phosphorimager (Molecular Dynamics). All quantifications were normalized against the amount of cyclophilin message which was considered to be standard for any given conditions.
Parathyroid hormone is an important bone hormone. […] The UMR106 cells were cultured as described above until confluence. The cells were then washed twice in phosphate buffered saline followed by incubation for 5 hours at 37° C. in serum free DMEM. After serum deprivation, 100 nM parathyroid hormone (PTH) was added to the cultures and incubation continued for 4, 8, 12, and 16 hours at 37° C. RNA was then isolated from the cells as described above.

parathyroid hormone [PTH]
effect on cell proliferation and DNA synthesis (UMR106 cells): inhibit cell proliferation, and DNA synthesis
effect of PTH on the other two novel PTPase clones [1]: Neither of the other two novel PTPase clones were altered
change of OST-PTP message at later time points (OST-PTP mRNA; UMR106 cells, 100 nM PTH, later than 4 hours (8, 12, 16 hours)): further increases
PTH concentration effective in increasing OST-PTP transcripts (OST-PTP mRNA; UMR106 cells, 18 hours): 1 nM
effect on OST-PTP transcripts of exposure for less than 4 hours (OST-PTP mRNA; UMR106 cells, regardless of concentration (10 pM-100 nM)): no significant effect
increase of PTP-OST (OST-PTP) message (OST-PTP mRNA; umr106 cells, 4 h, 0.1 µM): ≤ 5 fold
